# Assay results: patent US4728734A, “C-3'thioiminosulfonyl cephalosporin analogs” (American Home Products Corporation, priority 1985, dated 1988)
# Counter-ions that a name gives are not always drawn.
# Assays:
# Assay type in all cases: cell-based
# [1] = tested on: Streptococcus faecalis ATCC 29212; assay: Antibacterial activity, agar dilution MIC, Streptococcus faecalis ATCC 29212; settings: Enterococcus faecalis, ATCC29212, 18 hours at 35° C.
# Description: (§1) The compounds of the invention are tested for their antibacterial activity. The test is carried out as follows:
# (§2) The organisms used in the test comprise the following:
# (§3) Staphylococcus aureus (penicillin-sensitive and resistant), Pseudomonas aeruginosa, Escherichia coli, […] pneumoniae, Bordetella bronchiseptica, Proteus vulgaris, P. mirabilis, Acinetobacter calcoaceticus.
# (§4) Test organisms may be added or deleted in order to reflect current clinical patterns of antibiotic susceptibility or shifts in pathogenic potential.
# (§5) Organisms are normally grown for 18 hours in Brain Heart Infusion at 35° C. Cultures are adjusted with saline to MacFarland No. 1.5 standard prior to use.
# (§6) Stock concentrations (e.g. 2,5000 μg or units per ml) are prepared in a suitable vehicle. Two-fold dilutions are made. One ml quantities of each dilution are incorporated in 9 ml of the appropriate agar (e.g. Seed) in sterile Petri plates. The hardened surface is inoculated with test organisms by use of a Steers replicating device. The plates are incubated (e.g. 18 hours at 35° C.) and activity is determined.
# [2] = tested on: Escherichia coli ATCC 25922; assay: Antibacterial activity, agar dilution MIC, Escherichia coli ATCC 25922; settings: ATCC25922, 18 hours at 35° C.
# Description: as §1, §2, §3, §4, §5, §6
# [3] = tested on: Pseudomonas aeruginosa ATCC 27853; assay: Antibacterial activity, agar dilution MIC, Pseudomonas aeruginosa ATCC 27853; settings: ATCC27853, 18 hours at 35° C.
# Description: as §1, §2, §3, §4, §5, §6
# [4] = tested on: Serratia marcescens ATCC 13880; assay: Antibacterial activity, agar dilution MIC, Serratia marcescens ATCC 13880; settings: ATCC13880, 18 hours at 35° C.
# Description: as §1, §2, §3, §4, §5, §6
# [5] = tested on: Proteus vulgaris A 84354 1; assay: Antibacterial activity, agar dilution MIC, Proteus vulgaris A 84354 1; settings: A843541, 18 hours at 35° C.
# Description: as §1, §2, §3, §4, §5, §6
# [6] = tested on: Enterobacter cloacae ATCC 13047; assay: Antibacterial activity, agar dilution MIC, Enterobacter cloacae ATCC 13047; settings: ATCC13047, 18 hours at 35° C.
# Description: as §1, §2, §3, §4, §5, §6
# [7] = tested on: Staphylococcus aureus ATCC 29213; assay: Antibacterial activity, agar dilution MIC, Staphylococcus aureus ATCC 29213; settings: ATCC29213, 18 hours at 35° C.
# Description: as §1, §2, §3, §4, §5, §6
# [8] = tested on: Klebsiella pneunomiae KL-1; assay: Antibacterial activity, agar dilution MIC, Klebsiella pneunomiae KL-1; settings: KL1, 18 hours at 35° C.
# Description: as §1, §2, §3, §4, §5, §6
MIC [1] [µg/mL],MIC [2] [µg/mL],MIC [3] [µg/mL],MIC [4] [µg/mL],MIC [5] [µg/mL],MIC [6] [µg/mL],MIC [7] [µg/mL],MIC [8] [µg/mL],Structure (SMILES)
> 256,8,> 256,32,2,> 256,128,2,"CO/N=C(\C(=O)N[C@@H]1C(=O)N2C(C(=O)OC(C)(C)C)=C(CSC3=NS(=O)(=O)c4cscc43)CS[C@H]12)c1csc(N)n1 [Example 1 B., (6R,7R)-7[[(2-Amino-4-thiazolyl)(methoxyimino)acetyl]amino]-8-oxo-3-[(thieno[3,4-d]isothiazol-3-ylthio)methyl]-5-thia-1-azabicyclo[4.2.0]oct-2-ene-2-carboxylic acid 1,1-dimethylethyl ester S^3,S^3-dioxide]"
256,2,> 256,2,< 1,32,32,< 1,"CO/N=C(\C(=O)N[C@@H]1C(=O)N2C(C(=O)O)=C(CSC3=NS(=O)(=O)c4cscc43)CS[C@H]12)c1csc(N)n1 [Example 1 C., (6R,7R)-7-[[(2-Amino-4-thiazolyl)(methoxyimino)acetyl]amino]-8-oxo-3-[(thieno-[3,4-d]isothiazol-3-ylthio)methyl]-5-thia-1-azabicyclo[4.2.0]oct-2-ene-2-carboxylic acid S^3,S^3-dioxide, trifluoroacetate salt]"
